Reference: ChEMBL document CHEMBL1201862, “PubChem BioAssay data set” (2004)
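Exposure lasted 48 hours, with cells grown in 96-well plates and compounds tested at five concentrations. GI50 = concentration required for 50% inhibition of growth.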 Active and inactive are the calls of the source. Rule as the data show it: active = GI50 up to about 1.1 µM and inactive = higher.

Tests used:
Assay in all cases: NCI-60 cell line screen, 48 h
NCI/ADR-RES = system: NCI/ADR-RES
SNB-75 = system: SNB-75
OVCAR-4 = system: OVCAR-4
LOX IMVI = system: LOX IMVI
HOP-62 = system: HOP-62
SW-620 = system: SW-620
HCC 2998 = system: HCC 2998
A498 = system: A498
NCI-H23 = system: NCI-H23
KM-20L2 = system: KM-20L2
RPMI-8226 = system: RPMI-8226
U-251 = system: U-251
NCI-H522 = system: NCI-H522
K562 = system: K562
A549 = system: A549
SR = system: SR
TK-10 = system: TK-10

Measured: GI50

CC12CCC(C(=O)N3CC=CCC3)(OC1=O)C2(C)C (stereo unspecified)
inactive: NCI/ADR-RES > 100 µM | SNB-75 > 100 µM | OVCAR-4 > 100 µM | LOX IMVI > 100 µM | HOP-62 > 100 µM | SW-620 > 100 µM | HCC 2998 > 69 µM | A498 > 100 µM | NCI-H23 > 100 µM | KM-20L2 > 100 µM | RPMI-8226 > 100 µM | U-251 > 100 µM | NCI-H522 > 100 µM | K562 > 100 µM | A549 > 100 µM

COC(=O)C1=C(OC)c2cc3c(cc2C(c2cc(OC)c(OC)c(OC)c2)C1C(=O)OC)OCO3 (stereo unspecified)
inactive: SNB-75 > 100 µM | OVCAR-4 > 100 µM | SR 96.4 µM | LOX IMVI > 100 µM | HOP-62 > 100 µM | SW-620 > 100 µM | HCC 2998 > 100 µM | A498 43.2 µM | NCI-H23 > 100 µM | TK-10 > 100 µM | KM-20L2 > 100 µM | RPMI-8226 40.6 µM | U-251 > 100 µM | K562 > 100 µM | A549 > 100 µM

COc1cc(Cc2cc(OC)c(OC)c(OC)c2)ccc1O
inactive: SNB-75 2.88 µM | OVCAR-4 82.2 µM | SR 6.08 µM | LOX IMVI 8.57 µM | HOP-62 26.8 µM | SW-620 3.56 µM | HCC 2998 27 µM | NCI-H23 11.2 µM | TK-10 88.5 µM | KM-20L2 36.5 µM | RPMI-8226 8.39 µM | U-251 19.9 µM | NCI-H522 9.31 µM | K562 3.61 µM | A549 8.59 µM

S=C(N/N=C/c1ccccc1)NC12CC3CC(CC(C3)C1)C2
inactive: OVCAR-4 42.2 µM | SR 18.2 µM | LOX IMVI 22.8 µM | HOP-62 > 100 µM | SW-620 30.5 µM | A498 63.4 µM | NCI-H23 55.8 µM | TK-10 > 100 µM | KM-20L2 7.08 µM | RPMI-8226 22 µM | U-251 53.8 µM | NCI-H522 29.5 µM | K562 9.27 µM | A549 27.8 µM

C/N=c1\ss/c(=N\C(=S)N(C)C)n1-c1ccccc1
inactive: SNB-75 17.3 µM | OVCAR-4 > 100 µM | SR > 100 µM | LOX IMVI > 100 µM | HOP-62 > 80.7 µM | SW-620 > 100 µM | HCC 2998 > 100 µM | A498 44.6 µM | NCI-H23 > 68.1 µM | TK-10 > 100 µM | KM-20L2 > 100 µM | RPMI-8226 > 100 µM | U-251 67 µM | NCI-H522 9.14 µM | K562 > 100 µM | A549 > 100 µM

O=C(Cc1ccccc1)NN1C(=O)C(Cl)C1c1ccc(Cl)cc1 (stereo unspecified)
inactive: SNB-75 84.5 µM | OVCAR-4 > 100 µM | SR 24.1 µM | LOX IMVI > 100 µM | HOP-62 > 100 µM | SW-620 > 100 µM | HCC 2998 > 100 µM | NCI-H23 > 100 µM | TK-10 > 100 µM | KM-20L2 > 100 µM | RPMI-8226 51.4 µM | U-251 > 100 µM | NCI-H522 > 100 µM | K562 72.9 µM | A549 > 100 µM

CC(=O)OCCOCNC(=S)N/N=C(\C)c1cnc2ccccc2n1
inactive: SNB-75 52.7 µM | OVCAR-4 57.1 µM | SR > 100 µM | LOX IMVI 38.6 µM | HOP-62 86.3 µM | SW-620 28.2 µM | HCC 2998 32.7 µM | A498 > 100 µM | NCI-H23 72.8 µM | TK-10 > 100 µM | KM-20L2 16.3 µM | RPMI-8226 47.8 µM | U-251 29.1 µM | NCI-H522 21.9 µM | K562 43.4 µM | A549 26.6 µM

O=c1cc[nH]c2c1ccc1ncccc12
inactive: SNB-75 > 100 µM | OVCAR-4 > 100 µM | SR > 100 µM | LOX IMVI > 100 µM | HOP-62 > 100 µM | SW-620 > 100 µM | HCC 2998 > 100 µM | A498 > 100 µM | NCI-H23 > 100 µM | TK-10 > 100 µM | KM-20L2 > 100 µM | U-251 > 100 µM | NCI-H522 > 100 µM | K562 > 100 µM | A549 > 100 µM

CC(=O)C(CN(C)C)C(c1ccccc1)c1c(O)c2ccccc2oc1=O (stereo unspecified)
inactive: SNB-75 14.3 µM | OVCAR-4 > 100 µM | SR > 100 µM | LOX IMVI > 100 µM | HOP-62 > 100 µM | SW-620 > 100 µM | HCC 2998 > 100 µM | NCI-H23 > 100 µM | TK-10 > 100 µM | KM-20L2 > 100 µM | RPMI-8226 > 100 µM | U-251 > 100 µM | NCI-H522 > 100 µM | K562 > 100 µM | A549 > 100 µM

CCOC(=O)/C=C/n1c2ccccc2c(=O)c2cc(OC)ccc21
inactive: SNB-75 51.5 µM | OVCAR-4 > 100 µM | SR 28.2 µM | LOX IMVI 20.7 µM | HOP-62 > 100 µM | HCC 2998 > 100 µM | A498 > 100 µM | NCI-H23 57.1 µM | TK-10 74.5 µM | KM-20L2 > 100 µM | U-251 71.8 µM | NCI-H522 54.2 µM | K562 > 100 µM | A549 > 100 µM

O=C(CC(=O)c1ccccc1)CC(O)(c1ccccc1)c1ccccc1
inactive: SNB-75 9.55 µM | OVCAR-4 3.13 µM | SR 2.88 µM | HOP-62 3.34 µM | SW-620 4.02 µM | HCC 2998 10.6 µM | A498 12.1 µM | NCI-H23 3.37 µM | TK-10 9.82 µM | KM-20L2 5.25 µM | RPMI-8226 4.05 µM | U-251 3.32 µM | NCI-H522 3.12 µM | K562 2.47 µM

CN(C)CC1(Cc2ccccc2)CC/C(=C\c2ccccc2)C1=O (stereo unspecified)
inactive: SNB-75 57.3 µM | OVCAR-4 51.3 µM | SR 34 µM | LOX IMVI 29.6 µM | HOP-62 > 100 µM | SW-620 20.8 µM | HCC 2998 19.9 µM | A498 33.1 µM | NCI-H23 44.8 µM | TK-10 > 100 µM | KM-20L2 17.2 µM | RPMI-8226 23.9 µM | U-251 32.8 µM | NCI-H522 15.2 µM | K562 29.4 µM | A549 96.4 µM

CC(C)Cc1cccc(C(C)C)c1NC(=O)CCC(=O)N/N=C1\C(=N/NC(=O)CCC(=O)Nc2c(C(C)C)cccc2C(C)C)C(c2ccc3c(c2)OCO3)Oc2ccccc21 (stereo unspecified)
inactive: SNB-75 49.2 µM | OVCAR-4 74.1 µM | SR 55.7 µM | LOX IMVI 44.5 µM | HOP-62 71.9 µM | SW-620 46 µM | HCC 2998 > 100 µM | A498 > 100 µM | NCI-H23 > 100 µM | TK-10 > 100 µM | KM-20L2 > 100 µM | RPMI-8226 59.2 µM | U-251 35 µM | NCI-H522 19.5 µM | K562 25 µM | A549 65.3 µM
